These results are taken from patent US20100063046A1, “TETRACYCLIC IMIDAZOLE ANALOGS” (priority 2006, published 2010).

In this data set the target is T1, nucleolin (Homo sapiens, UniProt P19338).
T1 construct: without the N-terminal acidic stretches domain
The data set is described as follows: Nucleolin/nucleic acid ligand interaction assay (gel retardation). More on the design: key: A “+” represents the weakest nucleolin affinity; a “++++” represents the strongest nucleolin affinity. The settings on record: relative affinity of each nucleic acid ligand for recombinant nucleolin (MBP fusion, ~250 nM); 32P-labeled ligand; 6% DNA retardation gel. The format is binding. As to the method:
The following assays can be used to assess the effects of compounds on interactions between nucleolin and nucleic acid ligands capable of forming quadruplex (QP) and hairpin (HP) secondary structures. Nucleic acid ligands tested were a cMyc QP DNA having nucleotide sequence 5′-[…]-3′ and a HP pre-rRNA region to which nucleolin binds, having the sequence 5′-[…]-3′. In the assays, recombinant nucleolin (˜250 nM), which has been fused to maltose binding protein, and has the sequence under accession number NM_005381 without the N-terminal acidic stretches domain, is incubated with each of the two ^32P-labeled nucleic acid ligands (10 or 250 nM). Nucleolin and the nucleic acid ligand are incubated in the presence or absence of a test compound 7 in an incubation buffer (12.5 mM Tris, pH 7.6, 60 mM KCl, 1 mM MgCl2, 0.1 mM EDTA, 1 mM DTT, 5% glycerol, 0.1 mg/ml BSA) for 30 minutes at room temperature.
The resulting complexes are separated on a 6% DNA retardation gel using 0.5×TBE with 20 mM KCl as a running buffer. The assay also can be conducted using nucleic acid ligands derived from human ribosomal DNA, whereby one can identify a compound that selectively modulates formation of a nucleolin/nucleic acid complex that depends on the conformation of the nucleic acid. Sequences of suitable nucleic acids are shown in the preceding example. […] A “+” represents the weakest nucleolin affinity and a “++++” represents the strongest nucleolin affinity. […] Using nucleic acids such as these having known conformational properties, one can identify a compound such as the compounds described herein that selectively interferes with binding of nucleolin to a particular quadruplex structure.

T1 sequence (P19338 284-710 limits assumed): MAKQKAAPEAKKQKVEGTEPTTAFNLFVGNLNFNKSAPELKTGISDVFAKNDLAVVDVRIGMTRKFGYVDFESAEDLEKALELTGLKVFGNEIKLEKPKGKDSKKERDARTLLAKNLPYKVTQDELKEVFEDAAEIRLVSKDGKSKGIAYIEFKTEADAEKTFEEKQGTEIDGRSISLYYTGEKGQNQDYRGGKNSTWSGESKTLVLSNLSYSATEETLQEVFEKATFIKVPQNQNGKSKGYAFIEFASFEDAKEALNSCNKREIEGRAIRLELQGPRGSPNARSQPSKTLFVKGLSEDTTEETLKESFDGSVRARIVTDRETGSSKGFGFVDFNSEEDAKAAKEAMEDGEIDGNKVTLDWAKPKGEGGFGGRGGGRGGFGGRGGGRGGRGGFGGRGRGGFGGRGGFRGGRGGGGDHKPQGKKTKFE

Take “8749NT: DNA oligonucleotide from human rDNA non-template strand, GGGAGGGCGCGCGGGTCGGGG (chemistry not given here) [Example 8749NT]”: the “Affinity for Nucleolin” value is recorded as “+”.

Take “7733T: DNA oligonucleotide from human rDNA template strand, GGGAGGGGCACGGGCCGGGGGCGGGACGGG (DNA, backbone and methylation of C not given here) [Example 7733T]”: the “Affinity for Nucleolin” value is given as “+”.

Take “6183NT: DNA oligonucleotide from human rDNA non-template strand, GGGTCGGGGGCGGTGGTGGGCCCGCGGGGG (DNA, backbone and methylation of C not given here) [Example 6183NT]”: the “Affinity for Nucleolin” value is reported as “+”.

Take “11028NT: DNA oligonucleotide from human rDNA non-template strand, GGGGCGCGGCGGGGGGAGAAGGGTCGGGGCGGCAGGGG (DNA, backbone and methylation of C not given here) [Example 11028NT]”: the “Affinity for Nucleolin” value is “+”.

Take “8511NT: DNA oligonucleotide from human rDNA non-template strand, GGGGGTGGGCGGGCGGGGCCGGGGGTGGG (DNA, backbone and methylation of C not given here) [Example 8511NT]”: the “Affinity for Nucleolin” value is on record as “++++”.

B1: 8762NT: DNA oligonucleotide from human rDNA non-template strand, CGGAGGGCGCGCGGGTCGGGGCGGCGGCGGCGGCGGCGGTGGCGGCGGCGGCGGGGGCGGCGGG (nucleic acid)
DNA: CGGAGGGCGCGCGGGTCGGGGCGGCGGCGGCGGCGGCGGTGGCGGCGGCGGCGGGGGCGGCGGG
modifications: chemistry not given here
For B1, the “Affinity for Nucleolin” value was “++++”.
